The aqueous solubility is how much of the substance goes into solution per volume.

Results on 1 compound are retold here after patent US20190290726A1, “PROTEIN POLYMER FUSIONS FOR SUBCUTANEOUS DELIVERY OF SMALL MOLECULES” (University of Southern California, priority 2016, published 2019).

Data set [1] relates to MDA-MB-468 breast cancer xenograft. Put plainly: In vivo tumor regression study, subcutaneous administration. As to conditions: 0.75 mg/kg. From the text:
Since there was no statistical difference in efficacy observed between FSI-Rapa and FAF-Rapa intravenously, Applicants next employed SC route of administration in the same MDA-MB-468 xenograft mouse model (FIGS. 5A-5H). The rationale behind exploring SC route was to distinguish the uptake and bio distribution of different FKBP-ELPs from the site of injection into the systemic circulation. […] SC route further presents a convenient administration method compared to IV route with more clinical relevance and has been FDA approved for monoclonal antibodies and biotherapeutics.
The comparative tumor regression study consisted of 5 groups: PBS, Free Rapa, FAF-Rapa, FA-Rapa, and FSI-Rapa at the same maximum tolerated dose of 0.75 mg/kg (n=6-8/group). All treatments were done subcutaneously in the right flank above the hind leg. […] Because of the toxic side effects, mice were thereafter treated with free Rapa in DMSO:EtOH:Cremophore-EL:PBS formulation in 1:1:2:6% v/v ratio. […] However, the mice gradually gained back the lost BW which enabled us to continue the treatment with the Cremophore formulation. To prevent further local discomfort to mice, a different site of injection was chosen each time spanning the entire flank region for free Rapa injections. […] There was no local bruising or scabs observed with any of the FKBP-ELP-Rapa formulations which made the treatment easier and at the same site of injection throughout the study.
All animal experiments were conducted as per the guidelines of the American Association of Laboratory Animal Care under an USC approved protocol. MDA-MB-468 cells (American Type Tissue Culture Collection) were cultured at 37° C. with 5% CO2 in Dulbecco's modified Eagle's medium (DMEM)/Ham's F-12 media (Caisson) supplemented with 10% fetal bovine serum. The cells were sent for screening against all major mouse pathogens and human blood borne pathogens (Charles River) prior to implantation. A single injection of MDA-MB-468 cells (1-2×10^6 cells in 100 μL fetal bovine serum free DMEM media) was implanted into the left mammary fat pad of 7-8 weeks old female nude (nu/nu) athymic mice (Harlan, Inc.) Tumors were allowed to grow to a size of ˜50-100 mm^3 and mice were randomized blindly into respective groups before start of treatment. […] BW and tumor size were measured thrice a week on the same day of injections. Tumor size was measured using Vernier calipers and tumor volume was calculated using the following equation:
where a and b represents smaller and bigger length respectively. […] Tumor burden was calculated by determining the trapezoidal area under the growth curve for each mouse by using the following equation: […]

For data set [2] the following is noted: cited from earlier work.

≈ marks a conversion by molar mass, not a printed value. Entries after “also recorded” stand apart in the source; their conditions may differ.

Regarding `CO[C@H]1C[C@@H]2CC[C@@H](C)[C@@](O)(O2)C(=O)C(=O)N2CCCC[C@H]2C(=O)O[C@H]([C@H](C)C[C@@H]2CC[C@@H](O)[C@H](OC)C2)CC(=O)[C@H](C)/C=C(\C)[C@@H](O)[C@@H](OC)C(=O)[C@H](C)C[C@H](C)/C=C/C=C/C=C/1C` [Free Rapa, (3S,6R,7E,9R,10R,12R,14S,15E,17E,19E,21S,23S,26R,27R,34aS)-9,10,12,13,14,21,22,23,24,25,26,27,32,33,34,34a-hexadecahydro-9,27-dihydroxy-3-[(1R)-2-[(1S,3R,4R)-4-hydroxy-3-methoxycyclohexyl]-1-methylethyl]-10,21-dimethoxy-6,8,12,14,20,26-hexamethyl-23,27-epoxy-3H-pyrido[2,1-c][1,4]-oxaazacyclohentriacontine-1,5,11,28,29(4H,6H,31H)-pentone], the “tumor burden compared to PBS group” value in data set [1] (SC, Tukey post hoc, last day of treatment (day 50)) is given as “statistically significance compared to PBS group; also recorded: significantly lower compared to PBS”. The Kaplan-Meier survival analysis result in data set [1] (SC, endpoint 4 times increase in tumor volume) was “better anti-tumor efficacy than other groups”. In data set [1] (mouse, in vivo, sc), the “drop in BW” value came to 10% and the “toxicity, local toxicity at the site of injection” value was “considerable local toxicity at site of subcutaneous injection”. The aqueous solubility in data set [2] is about 10 µM (≈ 9.14 µg/mL).
